Patent US20060084688A1, “Aromatic sulfone hydroxamic acid metalloprotease inhibitor” (priority 1997, published 2006)
Counter-ions that a name gives are not always drawn. Like-named read-outs stand apart in the source and are kept apart here.

Columns and labels:
Experiment in all cases: biochemical
recombinant human MMP-2 = target: T1, recombinant human MMP-2 (Homo sapiens, UniProt P08253)
T1 sequence (P08253 110-660): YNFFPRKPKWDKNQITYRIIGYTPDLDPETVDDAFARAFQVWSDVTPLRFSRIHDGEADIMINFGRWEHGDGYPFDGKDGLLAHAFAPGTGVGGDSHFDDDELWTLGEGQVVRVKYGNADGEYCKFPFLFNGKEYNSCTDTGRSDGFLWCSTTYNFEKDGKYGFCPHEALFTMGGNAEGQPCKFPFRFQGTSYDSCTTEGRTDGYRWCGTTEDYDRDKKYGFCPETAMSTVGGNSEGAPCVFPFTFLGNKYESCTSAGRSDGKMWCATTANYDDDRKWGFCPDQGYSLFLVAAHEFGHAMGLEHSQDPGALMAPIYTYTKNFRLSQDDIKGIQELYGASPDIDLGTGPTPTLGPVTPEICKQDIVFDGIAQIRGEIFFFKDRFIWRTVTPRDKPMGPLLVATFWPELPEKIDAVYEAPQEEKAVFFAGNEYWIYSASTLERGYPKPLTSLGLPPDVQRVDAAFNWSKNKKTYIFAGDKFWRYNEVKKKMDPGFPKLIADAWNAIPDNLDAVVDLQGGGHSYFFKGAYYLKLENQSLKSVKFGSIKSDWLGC

recombinant human MMP-1 = target: T2, recombinant human MMP-1 (Homo sapiens, UniProt P03956)
T2 construct: made in house; host or cells: transfected HT-1080 cells
T2 sequence (P03956 100-469): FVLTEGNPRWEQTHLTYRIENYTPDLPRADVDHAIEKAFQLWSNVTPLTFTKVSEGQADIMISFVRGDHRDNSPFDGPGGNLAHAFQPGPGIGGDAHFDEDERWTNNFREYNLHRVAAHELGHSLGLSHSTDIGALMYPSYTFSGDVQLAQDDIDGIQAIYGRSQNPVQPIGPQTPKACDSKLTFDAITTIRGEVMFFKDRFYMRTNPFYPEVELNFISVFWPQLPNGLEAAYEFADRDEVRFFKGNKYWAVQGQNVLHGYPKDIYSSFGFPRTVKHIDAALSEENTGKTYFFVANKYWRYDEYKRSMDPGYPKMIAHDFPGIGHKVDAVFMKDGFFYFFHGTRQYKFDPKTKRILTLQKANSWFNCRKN

recombinant human MMP-13 = recombinant human MMP-13 (Homo sapiens, UniProt P45452)

Compound | IC50 (recombinant human MMP-2; room temperature, pH 7.5, 1 percent DMSO, 4 μM MCA peptide substrate, no asterisk) [µM] | IC50 (recombinant human MMP-1) [µM] | IC50 (recombinant human MMP-13; room temperature, pH 7.5, 1 percent DMSO, 4 μM MCA peptide substrate) [µM] | IC50 (recombinant human MMP-2; Inhibition Table B) [µM] | IC50 (recombinant human MMP-1; Inhibition Table B) [µM] | IC50 (recombinant human MMP-13; Inhibition Table B) [µM]
O=C(NO)C1(S(=O)(=O)c2ccc(SC3CCCCC3)cc2)CCN(C2CC2)CC1 [Example 21] | 0.0013 | > 10 | 0.0006 |  |  | 
C#CCN1CCC(C(=O)O)(S(=O)(=O)c2ccc(Sc3ccc(Cl)cc3)cc2)CC1 [Example 44a, 4-[[4-(4-chlorophenyl)thio]phenyl)sulfonyl]-1-(propynyl)-4-piperidinecarboxylic acid, monohydrochloride] |  |  |  | < 0.0001 | > 10 | 0.0002
C#CCN1CCC(C(=O)NO)(S(=O)(=O)c2ccc(Sc3ccc(Cl)cc3)cc2)CC1 [Example 44b, 4-[[4-(4-chlorophenyl)thio]phenyl]sulfonyl]-N-hydroxy-1-(propynyl)-4-piperidinecarboxamide, monohydrochloride] |  |  |  | 8 | > 10 | > 10
C#CCN1CCC(C(=O)NO)(S(=O)(=O)c2ccc([S+]([O-])c3ccccc3)cc2)CC1 (stereo not drawn) [Example 47b] |  |  |  | 3 | > 10 | 3.1
O=C(O)C1CCN(c2ccc(S(=O)(=O)C3(C(=O)NO)CCOCC3)cc2)CC1 [Example 129] |  |  |  | > 0.1 | > 10 | 1
CNC(=O)C1CCN(c2ccc(S(=O)(=O)C3(C(=O)NO)CCOCC3)cc2)CC1 [Example 130] |  |  |  | 0.0577 | > 10 | 0.0459
O=C(C1CCN(c2ccc(S(=O)(=O)C3(C(=O)NO)CCOCC3)cc2)CC1)N1CCOCC1 [Example 131] |  |  |  | 0.65 | > 10 | 0.01
O=C(NCCO)C1CCN(c2ccc(S(=O)(=O)C3(C(=O)NO)CCOCC3)cc2)CC1 [Example 132] |  |  |  | 0.42 | > 10 | 
NCCCNC(=O)C1CCN(c2ccc(S(=O)(=O)C3(C(=O)NO)CCOCC3)cc2)CC1 [Example 133] |  |  |  | 0.09 | > 10 | 0.027
CCNC(=O)C1CCN(c2ccc(S(=O)(=O)C3(C(=O)NO)CCOCC3)cc2)CC1 [Example 134] |  |  |  | 0.029 | 9 | 0.004
O=C(O)CNC(=O)C1CCN(c2ccc(S(=O)(=O)C3(C(=O)NO)CCOCC3)cc2)CC1 [Example 135] |  |  |  | 0.5 | > 10 | 0.065
O=C(NO)C1CCN(c2ccc(S(=O)(=O)C3(C(=O)NO)CCOCC3)cc2)CC1 [Example 137] |  |  |  | 0.3 | > 10 | 0.0347
O=C(O)C1CCCN(c2ccc(S(=O)(=O)C3(C(=O)NO)CCOCC3)cc2)C1 (stereo not drawn) [Example 138] |  |  |  | > 0.1 | > 10 | > 0.1
CNC(=O)C1CCCN(c2ccc(S(=O)(=O)C3(C(=O)NO)CCOCC3)cc2)C1 (stereo not drawn) [Example 139] |  |  |  |  | > 10 | 0.0254
O=C(C1CCCN(c2ccc(S(=O)(=O)C3(C(=O)NO)CCOCC3)cc2)C1)N1CCOCC1 (stereo not drawn) [Example 140] |  |  |  |  | > 10 | 0.06
O=C(NCCO)C1CCCN(c2ccc(S(=O)(=O)C3(C(=O)NO)CCOCC3)cc2)C1 (stereo not drawn) [Example 141] |  |  |  | > 0.1 | > 10 | > 0.1
NCCCNC(=O)C1CCCN(c2ccc(S(=O)(=O)C3(C(=O)NO)CCOCC3)cc2)C1 (stereo not drawn) [Example 142] |  |  |  | 0.6 | > 10 | 0.07
CCNC(=O)C1CCCN(c2ccc(S(=O)(=O)C3(C(=O)NO)CCOCC3)cc2)C1 (stereo not drawn) [Example 143] |  |  |  | 0.9 | > 10 | 0.0239
O=C(O)CNC(=O)C1CCCN(c2ccc(S(=O)(=O)C3(C(=O)NO)CCOCC3)cc2)C1 (stereo not drawn) [Example 144] |  |  |  | 0.8 | > 10 | 0.0307
O=C(NO)C1CCCN(c2ccc(S(=O)(=O)C3(C(=O)NO)CCOCC3)cc2)C1 (stereo not drawn) [Example 146] |  |  |  | 0.65 | > 10 | 0.0326
CN(C)C(=O)C1CCN(c2ccc(S(=O)(=O)C3(C(=O)NO)CCOCC3)cc2)CC1 [Example 147] |  |  |  | 2.7 | > 10 | 0.031
CCN(CC)C(=O)C1CCN(c2ccc(S(=O)(=O)C3(C(=O)NO)CCOCC3)cc2)CC1 [Example 148] |  |  |  | 2.4 | > 10 | 0.031
O=C(C1CCN(c2ccc(S(=O)(=O)C3(C(=O)NO)CCOCC3)cc2)CC1)N1CCCCC1 [Example 149] |  |  |  | 1.6 | > 10 | 0.0155

Compound | IC50 (recombinant human MMP-2; room temperature, pH 7.5, 1 percent DMSO, 4 μM MCA peptide substrate, no asterisk) [µM] | IC50 (recombinant human MMP-1) [µM] | IC50 (recombinant human MMP-13; room temperature, pH 7.5, 1 percent DMSO, 4 μM MCA peptide substrate) [µM] | IC50 (recombinant human MMP-2; Inhibition Table B) [µM] | IC50 (recombinant human MMP-1; Inhibition Table B) [µM] | IC50 (recombinant human MMP-13; Inhibition Table B) [µM]
CN1CCN(C(=O)C2CCN(c3ccc(S(=O)(=O)C4(C(=O)NO)CCOCC4)cc3)CC2)CC1 [Example 150] |  |  |  | 1.3 | > 10 | 0.0145
O=C(C1CCN(c2ccc(S(=O)(=O)C3(C(=O)NO)CCOCC3)cc2)CC1)N1CCNCC1 [Example 151] |  |  |  | 1.5 | > 10 | 0.035
CCOC(=O)C1CCN(C(=O)C2CCN(c3ccc(S(=O)(=O)C4(C(=O)NO)CCOCC4)cc3)CC2)CC1 [Example 152] |  |  |  | 2.4 | > 10 | 0.0165
CCOC(=O)C1CCCN(C(=O)C2CCN(c3ccc(S(=O)(=O)C4(C(=O)NO)CCOCC4)cc3)CC2)C1 (stereo not drawn) [Example 153] |  |  |  | 2.7 | > 10 | 0.0135
CCOC(=O)C1CCCCN1C(=O)C1CCN(c2ccc(S(=O)(=O)C3(C(=O)NO)CCOCC3)cc2)CC1 (stereo not drawn) [Example 154] |  |  |  | 1.6 | > 10 | 0.027
CN(C)C(=O)C1CCCN(c2ccc(S(=O)(=O)C3(C(=O)NO)CCOCC3)cc2)C1 (stereo not drawn) [Example 155] |  |  |  | > 1 | > 10 | > 0.1
O=C(C1CCCN(c2ccc(S(=O)(=O)C3(C(=O)NO)CCOCC3)cc2)C1)N1CCCCC1 (stereo not drawn) [Example 156] |  |  |  | 3.3 | > 10 | 0.0278
CN1CCN(C(=O)C2CCCN(c3ccc(S(=O)(=O)C4(C(=O)NO)CCOCC4)cc3)C2)CC1 (stereo not drawn) [Example 157] |  |  |  | 6 | > 10 | 0.09
O=C(C1CCCN(c2ccc(S(=O)(=O)C3(C(=O)NO)CCOCC3)cc2)C1)N1CCNCC1 (stereo not drawn) [Example 158] |  |  |  | 5 | > 10 | 0.08
CCOC(=O)C1CCN(C(=O)C2CCCN(c3ccc(S(=O)(=O)C4(C(=O)NO)CCOCC4)cc3)C2)CC1 (stereo not drawn) [Example 159] |  |  |  | 2.5 | > 10 | 0.0156
CCOC(=O)C1CCCN(C(=O)C2CCCN(c3ccc(S(=O)(=O)C4(C(=O)NO)CCOCC4)cc3)C2)C1 (stereo not drawn) [Example 160] |  |  |  | 4.7 | > 10 | 0.0337
CCOC(=O)C1CCCCN1C(=O)C1CCCN(c2ccc(S(=O)(=O)C3(C(=O)NO)CCOCC3)cc2)C1 (stereo not drawn) [Example 161] |  |  |  | > 1 | > 10 | > 0.1
O=C(C1CCCN(c2ccc(S(=O)(=O)C3(C(=O)NO)CCOCC3)cc2)C1)N1CCCCCC1 (stereo not drawn) [Example 162] |  |  |  | > 1 | > 10 | > 0.1
CC1(C)C[C@@H]2C[C@@](C)(CN2C(=O)C2CCCN(c3ccc(S(=O)(=O)C4(C(=O)NO)CCOCC4)cc3)C2)C1 (stereo partly drawn) [Example 163] |  |  |  | 4 | > 10 | 0.0774
C[C@@H]1CN(C(=O)C2CCCN(c3ccc(S(=O)(=O)C4(C(=O)NO)CCOCC4)cc3)C2)C[C@H](C)O1 (stereo partly drawn) [Example 169] |  |  |  | > 1 |  | > 0.1
O=C(C1CCCN(c2ccc(S(=O)(=O)C3(C(=O)NO)CCOCC3)cc2)C1)N1CCCC2CCCCC21 (stereo not drawn) [Example 170] |  |  |  | > 1 |  | > 0.1
N[C@H]1CCN(C(=O)C2CCN(c3ccc(S(=O)(=O)C4(C(=O)NO)CCOCC4)cc3)CC2)C1 [Example 175] |  |  |  | > 1 |  | > 0.1
C[C@@H]1CN(C(=O)C2CCN(c3ccc(S(=O)(=O)C4(C(=O)NO)CCOCC4)cc3)CC2)C[C@H](C)O1 [Example 176] |  |  |  | 0.4 |  | 0.025
O=C(C1CCN(c2ccc(S(=O)(=O)C3(C(=O)NO)CCOCC3)cc2)CC1)N1CCCC1 [Example 179] |  |  |  | 0.44 | > 10 | 
CCCCNC(=O)C1CCN(c2ccc(S(=O)(=O)C3(C(=O)NO)CCOCC3)cc2)CC1 [Example 181] |  |  |  | 0.121 |  | 0.0061
O=C(NC1CCCCCC1)C1CCN(c2ccc(S(=O)(=O)C3(C(=O)NO)CCOCC3)cc2)CC1 [Example 194] |  |  |  | 0.165 |  | 0.008
O=C(NCc1ccncc1)C1CCN(c2ccc(S(=O)(=O)C3(C(=O)NO)CCOCC3)cc2)CC1 [Example 195] |  |  |  |  |  | 0.0145
